Experimental data as given in patent US6544524B2, “Ethyl acetate extract from guignardia used to treat an individual infected by fungi or bacteria” (Fundacao Oswaldo Cruz - FIOCRUZ, priority 2001, dated 2003).

Assays:
[1] = test system: Staphylococcus aureus (ATCC 25923); assay: bioautographical method on a layer of agar; format: cell-based; settings: against S. aureus; Mueller-Hinton agar, 37° C., 24 hours, MTT
Experimental: (§1) The antimicrobial activity of this compound was detected employing the bioautographical method on a layer of agar (Rahalison,L.; Hamburger, M., Hostettmann, K.; Monod, M.; Frenk, E. Phytochemical Ananlysis.2.199-203.1991). The following micro-organisms were tested: Escherichia coli (ATCC 25922) and Staphylococcus aureus (ATCC 25923). The medium used was the Mueller-Hinton in agar (Oxoid). The cultures grew during the night in nutrient medium broth number 3 (Fluka). For the bioautographic test the cultures were standardised through successive dilutions in 10^5 cells/ml. The plaques were incubated at 37° C. for a period of 24 hours, sprayed with an aqueous solution of Methylthiazolyltetrazolium chloride (MTT)at 0.25% and then incubated for a further two hours at 37° C. The active fractions were detected under the form of white areas of inhibition on a lilac background.

[2] = test system: Escherichia coli (ATCC 25922); assay: bioautographical method on a layer of agar; format: cell-based; settings: against E. coli; Mueller-Hinton agar, 37° C., 24 hours, MTT
Experimental: as §1

## CC(C)C1(C(=O)O)OC(=O)/C(=C/c2ccccc2)O1 (centres unmarked) [compound of the invention, (Z)-5-benzylidene-2-isopropyl-4-oxo-1.3-dioxolane-2-carboxyl acid]
[1]
  antibacterial activity: 75 nM
[2]
  antibacterial activity: 150 nM
